Measurements as given in ChEMBL document CHEMBL3792292, “Development of a potent and selective FLT3 kinase inhibitor by systematic expansion of a non-selective fragment-screening hit” (Bioorg Med Chem Lett, 2016).

What was measured:
[1] = biological target: Rho-associated protein kinase 1 (Homo sapiens) (UniProt Q13464); assay: Inhibition of human N-terminal GST-tagged ROCK1 catalytic domain (1 to 477 residues) expressed in baculovirus expression system using fluorescence labelled LIMKtide substrate at 50 times IC50 by electrophoretic mobility shift assay relative to control
[2] = biological target: T1, Tyrosine-protein kinase ITK/TSK (Homo sapiens) (UniProt Q08881); assay: Inhibition of full length human N-terminal GST-tagged ITK (2 to 620 residues) expressed in baculovirus expression system using fluorescence labelled srctide as substrate at 50 times IC50 by electrophoretic mobility shift assay relative to control
T1 sequence (whole entry): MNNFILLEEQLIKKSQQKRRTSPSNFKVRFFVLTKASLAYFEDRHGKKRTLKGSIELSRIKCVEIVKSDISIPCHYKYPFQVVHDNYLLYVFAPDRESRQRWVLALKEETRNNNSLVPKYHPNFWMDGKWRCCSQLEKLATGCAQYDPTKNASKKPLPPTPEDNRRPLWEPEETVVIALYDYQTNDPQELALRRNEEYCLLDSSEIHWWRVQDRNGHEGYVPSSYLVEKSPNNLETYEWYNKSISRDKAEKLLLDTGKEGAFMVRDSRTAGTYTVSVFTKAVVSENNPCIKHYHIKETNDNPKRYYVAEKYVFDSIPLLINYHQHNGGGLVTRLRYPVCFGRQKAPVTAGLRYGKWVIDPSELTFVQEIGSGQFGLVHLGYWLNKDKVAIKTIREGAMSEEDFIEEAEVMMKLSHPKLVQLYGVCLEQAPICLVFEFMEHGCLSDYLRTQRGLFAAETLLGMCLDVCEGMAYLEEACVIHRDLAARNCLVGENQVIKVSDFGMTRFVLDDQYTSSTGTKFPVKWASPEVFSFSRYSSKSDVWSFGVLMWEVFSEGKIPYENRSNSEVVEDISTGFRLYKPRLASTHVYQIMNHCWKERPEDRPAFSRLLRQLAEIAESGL

[3] = biological target: T2, Aurora kinase A (Homo sapiens) (UniProt O14965); assay: Inhibition of full length human N-terminal GST-tagged Aurora A (1 to 403 residues) expressed in baculovirus expression system using fluorescence labelled kemptide as substrate at 50 times IC50 by electrophoretic mobility shift assay relative to control
T2 sequence (whole entry): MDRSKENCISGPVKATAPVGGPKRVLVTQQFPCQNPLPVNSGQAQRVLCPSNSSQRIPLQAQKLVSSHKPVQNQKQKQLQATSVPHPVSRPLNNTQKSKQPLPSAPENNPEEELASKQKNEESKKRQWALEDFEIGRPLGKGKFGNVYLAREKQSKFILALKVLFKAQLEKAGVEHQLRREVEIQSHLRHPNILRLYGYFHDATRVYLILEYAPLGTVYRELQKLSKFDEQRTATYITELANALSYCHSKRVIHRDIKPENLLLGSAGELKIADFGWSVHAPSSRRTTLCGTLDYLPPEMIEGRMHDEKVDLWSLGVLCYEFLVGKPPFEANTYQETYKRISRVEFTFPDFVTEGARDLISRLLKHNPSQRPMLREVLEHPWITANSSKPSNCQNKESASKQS

[4] = biological target: MAP kinase-activated protein kinase 2 (Homo sapiens) (UniProt P49137); assay: Inhibition of full length human N-terminal GST-tagged MAPKAPK2 (1 to 400 residues) expressed in baculovirus expression system coexpressing human His-tagged p38beta (1 to 364 residues)/MAP2K6 (1 to 334 residues) using fluorescence labelled GS peptide substrate at 50 times IC50 by electrophoretic mobility shift assay relative to control
[5] = biological target: Tyrosine-protein kinase ABL1 (Homo sapiens) (UniProt P00519); assay: Inhibition of full length human N-terminal His-tagged ABL (2 to 1130 residues) expressed in baculovirus expression system using fluorescence labelled ABLtide as substrate at 50 times IC50 by electrophoretic mobility shift assay relative to control
[6] = biological target: T3, Serine/threonine-protein kinase Nek2 (Homo sapiens) (UniProt P51955); assay: Inhibition of full length human N-terminal His-tagged NEK2 (1 to 445 residues) expressed in baculovirus expression system using fluorescence labelled CDK7 peptide substrate at 50 times IC50 by electrophoretic mobility shift assay relative to control
T3 sequence (whole entry): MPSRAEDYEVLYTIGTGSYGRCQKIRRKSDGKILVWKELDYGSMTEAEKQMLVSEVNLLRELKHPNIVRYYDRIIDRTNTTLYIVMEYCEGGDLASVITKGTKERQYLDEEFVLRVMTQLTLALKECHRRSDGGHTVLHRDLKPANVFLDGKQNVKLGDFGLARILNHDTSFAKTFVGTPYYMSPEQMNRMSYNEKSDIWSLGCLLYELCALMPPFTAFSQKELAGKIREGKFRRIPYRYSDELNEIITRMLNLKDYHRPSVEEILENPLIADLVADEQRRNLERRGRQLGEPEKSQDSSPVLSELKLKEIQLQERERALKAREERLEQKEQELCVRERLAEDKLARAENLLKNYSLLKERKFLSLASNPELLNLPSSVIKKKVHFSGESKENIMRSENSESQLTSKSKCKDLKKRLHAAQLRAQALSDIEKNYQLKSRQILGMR

[7] = biological target: RAC-alpha serine/threonine-protein kinase (Homo sapiens) (UniProt P31749); assay: Inhibition of human N-terminal GST-tagged AKT1 catalytic domain (104 to 480 residues) expressed in baculovirus expression system using fluorescence labelled crosstide as substrate at 50 times IC50 by electrophoretic mobility shift assay relative to control
Chain of RAC-alpha serine/threonine-protein kinase (Homo sapiens) (P31749 whole entry, the tested form may be a part): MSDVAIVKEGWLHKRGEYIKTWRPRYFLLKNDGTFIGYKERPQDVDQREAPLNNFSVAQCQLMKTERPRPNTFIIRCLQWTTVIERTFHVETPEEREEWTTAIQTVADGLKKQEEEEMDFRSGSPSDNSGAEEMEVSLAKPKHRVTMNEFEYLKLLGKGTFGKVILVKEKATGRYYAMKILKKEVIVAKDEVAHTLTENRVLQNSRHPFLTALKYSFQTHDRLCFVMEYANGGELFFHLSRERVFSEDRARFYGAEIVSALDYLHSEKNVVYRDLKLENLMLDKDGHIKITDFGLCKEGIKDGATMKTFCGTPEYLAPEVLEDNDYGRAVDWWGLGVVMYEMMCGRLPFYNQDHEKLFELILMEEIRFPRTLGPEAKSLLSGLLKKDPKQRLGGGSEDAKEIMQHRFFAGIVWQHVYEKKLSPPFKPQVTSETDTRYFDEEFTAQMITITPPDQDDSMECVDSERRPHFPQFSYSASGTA

Chain of Tyrosine-protein kinase ABL1 (Homo sapiens) (P00519 whole entry, the tested form may be a part): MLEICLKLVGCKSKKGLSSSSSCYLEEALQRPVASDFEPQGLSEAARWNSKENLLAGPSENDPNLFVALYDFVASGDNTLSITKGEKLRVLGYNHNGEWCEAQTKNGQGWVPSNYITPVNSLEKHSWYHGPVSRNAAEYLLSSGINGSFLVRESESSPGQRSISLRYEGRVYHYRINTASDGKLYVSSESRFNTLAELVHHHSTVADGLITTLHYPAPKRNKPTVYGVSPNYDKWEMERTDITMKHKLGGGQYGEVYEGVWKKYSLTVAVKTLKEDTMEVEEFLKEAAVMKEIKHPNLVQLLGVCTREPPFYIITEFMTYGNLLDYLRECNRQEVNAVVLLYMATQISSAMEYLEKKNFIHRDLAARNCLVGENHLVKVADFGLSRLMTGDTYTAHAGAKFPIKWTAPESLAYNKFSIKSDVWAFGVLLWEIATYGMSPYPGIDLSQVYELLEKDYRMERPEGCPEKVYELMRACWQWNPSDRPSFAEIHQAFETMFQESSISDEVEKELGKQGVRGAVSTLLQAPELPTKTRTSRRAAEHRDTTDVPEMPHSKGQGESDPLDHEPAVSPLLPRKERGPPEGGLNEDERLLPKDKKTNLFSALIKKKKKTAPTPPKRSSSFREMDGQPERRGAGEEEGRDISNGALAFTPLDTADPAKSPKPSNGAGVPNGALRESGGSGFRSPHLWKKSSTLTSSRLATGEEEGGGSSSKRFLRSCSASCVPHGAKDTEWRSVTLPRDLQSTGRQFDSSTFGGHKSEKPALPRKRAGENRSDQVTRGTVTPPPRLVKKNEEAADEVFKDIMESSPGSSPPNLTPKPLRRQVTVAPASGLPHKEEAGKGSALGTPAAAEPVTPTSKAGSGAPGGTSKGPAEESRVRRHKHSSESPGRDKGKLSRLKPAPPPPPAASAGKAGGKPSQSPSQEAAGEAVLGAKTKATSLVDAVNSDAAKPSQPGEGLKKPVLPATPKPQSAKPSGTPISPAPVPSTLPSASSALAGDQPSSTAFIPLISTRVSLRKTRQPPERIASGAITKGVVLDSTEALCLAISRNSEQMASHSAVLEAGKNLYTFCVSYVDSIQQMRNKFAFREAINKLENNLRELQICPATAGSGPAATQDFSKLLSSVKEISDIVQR
Chain of MAP kinase-activated protein kinase 2 (Homo sapiens) (P49137 whole entry, looked up, the tested form may be a part): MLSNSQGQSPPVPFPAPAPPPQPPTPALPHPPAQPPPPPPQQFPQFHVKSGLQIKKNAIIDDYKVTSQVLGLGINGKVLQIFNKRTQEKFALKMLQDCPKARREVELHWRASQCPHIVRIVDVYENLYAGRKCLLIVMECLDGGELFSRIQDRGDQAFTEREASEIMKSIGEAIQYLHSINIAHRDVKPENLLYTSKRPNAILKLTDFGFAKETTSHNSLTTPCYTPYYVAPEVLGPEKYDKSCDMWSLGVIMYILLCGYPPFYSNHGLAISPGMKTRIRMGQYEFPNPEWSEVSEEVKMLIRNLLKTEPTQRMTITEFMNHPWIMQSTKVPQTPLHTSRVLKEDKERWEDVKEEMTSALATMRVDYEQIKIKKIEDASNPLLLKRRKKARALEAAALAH
Chain of Rho-associated protein kinase 1 (Homo sapiens) (Q13464 2-1354 limits assumed): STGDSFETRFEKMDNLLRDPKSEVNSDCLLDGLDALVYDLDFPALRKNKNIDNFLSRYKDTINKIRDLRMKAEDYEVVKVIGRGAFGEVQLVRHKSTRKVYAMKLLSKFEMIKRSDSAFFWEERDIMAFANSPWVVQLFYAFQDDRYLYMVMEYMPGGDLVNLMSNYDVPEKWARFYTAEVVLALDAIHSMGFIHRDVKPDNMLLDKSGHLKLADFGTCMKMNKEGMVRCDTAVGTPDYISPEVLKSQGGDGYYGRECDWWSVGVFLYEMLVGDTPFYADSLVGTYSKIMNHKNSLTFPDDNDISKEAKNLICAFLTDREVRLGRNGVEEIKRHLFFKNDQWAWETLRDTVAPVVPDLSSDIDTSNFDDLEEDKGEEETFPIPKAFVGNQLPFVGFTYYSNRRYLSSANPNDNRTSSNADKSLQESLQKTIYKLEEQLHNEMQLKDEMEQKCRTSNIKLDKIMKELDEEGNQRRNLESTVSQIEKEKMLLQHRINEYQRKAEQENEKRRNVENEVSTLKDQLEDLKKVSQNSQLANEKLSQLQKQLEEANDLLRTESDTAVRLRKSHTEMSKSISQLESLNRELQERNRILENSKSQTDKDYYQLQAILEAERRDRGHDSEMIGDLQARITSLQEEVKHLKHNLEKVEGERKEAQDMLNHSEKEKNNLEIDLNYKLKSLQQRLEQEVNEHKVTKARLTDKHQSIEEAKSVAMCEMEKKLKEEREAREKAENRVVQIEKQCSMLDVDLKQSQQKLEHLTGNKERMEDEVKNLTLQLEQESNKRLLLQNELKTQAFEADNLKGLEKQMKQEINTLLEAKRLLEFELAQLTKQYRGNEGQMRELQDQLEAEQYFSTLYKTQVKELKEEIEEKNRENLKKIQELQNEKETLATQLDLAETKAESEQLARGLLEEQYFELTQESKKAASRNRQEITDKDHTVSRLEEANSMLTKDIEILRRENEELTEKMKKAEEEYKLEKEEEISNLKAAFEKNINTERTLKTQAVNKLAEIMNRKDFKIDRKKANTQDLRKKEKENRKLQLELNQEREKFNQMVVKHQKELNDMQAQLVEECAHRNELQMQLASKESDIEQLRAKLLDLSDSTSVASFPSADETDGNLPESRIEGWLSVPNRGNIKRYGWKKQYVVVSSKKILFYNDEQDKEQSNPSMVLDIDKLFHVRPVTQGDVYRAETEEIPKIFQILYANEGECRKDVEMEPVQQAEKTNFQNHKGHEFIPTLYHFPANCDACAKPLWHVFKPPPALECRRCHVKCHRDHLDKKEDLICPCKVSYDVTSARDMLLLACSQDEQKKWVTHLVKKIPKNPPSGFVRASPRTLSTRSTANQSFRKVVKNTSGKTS

SMILES	inhibition [1]	inhibition [2]	inhibition [3]	inhibition [4]	inhibition [5]	inhibition [6]	inhibition [7]
O=C(Nc1ccc(C(=O)N2CCN(c3ccccc3)CC2)cc1)c1n[nH]c2ccccc12	6.9%	50.8%	31.3%	-7.5%	3.9%	0.2%	-1.1%
O=C(Nc1ccccc1)c1n[nH]c2ccccc12	3.3%	79.7%	45.2%	5.1%	5.3%	2.3%	-2.4%
O=C(Nc1ccc(CN2CCN(c3ccccc3)CC2)cc1)c1n[nH]c2ccccc12	1.9%	37.4%	6.1%	9.7%	3.4%	-2.3%	-3.3%
